Earlier results on 14 molecules are cited in patent US12649952B2, “NTRK fusion molecules and uses thereof” (Foundation Medicine, Inc., priority 2019, dated 2026).

pIC50, pKd: −log10 of the molar value. Like-named read-outs stand apart in the source and are kept apart here. Bounds are passed on as bounds.

As a reminder, the pKd is the negative decadic logarithm of the Kd, by convention in mol/L. As usually defined, the pIC50 is the negative decadic logarithm of the IC50, by convention in mol/L.

For data set [1], the system named is Ntrk1/Hsp90. The settings on record: results in degradation and depletion of Ntrk1.
Data set [2] deals with myeloid leukemia cells.
Data set [3] has as its system Ntrk1/Hsp90.
Data set [4] has as its system myeloid leukemia cells. This is another data set of the same source.
For another data set, the system named is neuroblastoma xenograft. The settings on record: in vivo.
The subject of a further data set is preclinical models. Conditions: variety of preclinical models.
The subject of data set [5] is lung adenocarcinoma cell line.
A further data set addresses TrkA (Homo sapiens, UniProt P04629). The settings on record: for inhibition of Ntrk1 / NTRK1: result in words.
Data set [6] has as its system preclinical tumor models including a xenograft model of lung cancer. The settings on record: in vivo.
Data set [7] deals with NTRK fusion-positive cancers.
Another data set relates to NTRK gene fusions. Conditions: after further follow-up, expanded patient population (n=159).
Another data set relates to tumor xenograft models. Conditions: variety of preclinical tumor xenograft models.
The test system of data set [8] is lung adenocarcinoma with KRAS mutation. Conditions: mouse, in vivo.
Data set [9] has as its system solid tumors. The settings on record: Phase 1, solid tumors.
Another data set addresses NGF dimer (Homo sapiens, UniProt P01138). The settings on record: read-out: KD for binding the NGF dimer.
For data set [10], the system named is NTRK1 fusion-positive tumors. Conditions: human, in vivo.
The test system of data set [11] is solid tumors. Conditions: Phase 1, 56 solid tumor patients.
For data set [12], the system named is solid tumors with NTRK fusions. The settings on record: monotherapy; adult and pediatric patients, with and without CNS metastases.
Data set [13] has as its system NTRK fusion-positive AML cell lines.
In the next data set the test system is neuroblastoma. The settings on record: human, in vivo.

Sequence of TrkA (P04629 33-796): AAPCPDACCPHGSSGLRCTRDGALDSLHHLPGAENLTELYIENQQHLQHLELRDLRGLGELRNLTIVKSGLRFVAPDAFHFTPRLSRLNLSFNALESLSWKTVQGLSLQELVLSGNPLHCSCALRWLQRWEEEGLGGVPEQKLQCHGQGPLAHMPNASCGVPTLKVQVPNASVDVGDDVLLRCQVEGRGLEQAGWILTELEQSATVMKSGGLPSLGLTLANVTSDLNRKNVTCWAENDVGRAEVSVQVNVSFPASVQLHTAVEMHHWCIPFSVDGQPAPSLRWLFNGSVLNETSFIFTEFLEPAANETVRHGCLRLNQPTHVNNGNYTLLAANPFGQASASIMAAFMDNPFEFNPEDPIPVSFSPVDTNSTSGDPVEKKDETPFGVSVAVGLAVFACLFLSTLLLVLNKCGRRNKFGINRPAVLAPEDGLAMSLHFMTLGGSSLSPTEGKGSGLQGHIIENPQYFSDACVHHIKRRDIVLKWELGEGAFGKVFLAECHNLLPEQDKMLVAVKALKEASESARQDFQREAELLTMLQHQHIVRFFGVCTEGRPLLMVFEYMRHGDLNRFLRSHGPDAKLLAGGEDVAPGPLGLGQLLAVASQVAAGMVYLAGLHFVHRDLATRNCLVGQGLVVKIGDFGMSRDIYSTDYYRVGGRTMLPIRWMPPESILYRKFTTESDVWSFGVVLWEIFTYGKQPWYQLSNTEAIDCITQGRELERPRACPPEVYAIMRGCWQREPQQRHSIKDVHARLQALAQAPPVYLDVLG
Sequence of NGF dimer (P01138 122-241): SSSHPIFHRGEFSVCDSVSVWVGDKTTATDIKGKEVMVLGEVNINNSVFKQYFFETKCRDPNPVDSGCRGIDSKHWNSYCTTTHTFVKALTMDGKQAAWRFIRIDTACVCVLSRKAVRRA

Turning to `CO[C@H]1/C=C\C=C(/C)C(=O)NC2=CC(=O)C(NCCN(C)C)=C(C[C@@H](C)C[C@H](OC)[C@H](O)[C@@H](C)/C=C(\C)[C@@H]1OC(N)=O)C2=O` [17-DMAG], the Ntrk1/Hsp90 binding result in the data set with Ntrk1/Hsp90 [1] and in the data set on Ntrk1/Hsp90 [3] was “disrupted Ntrk1/Hsp90 binding” each time. Moreover, the “growth of myeloid leukemia cells” value in the data set with myeloid leukemia cells [2] and in the data set with myeloid leukemia cells [4] was “reduced the growth of myeloid leukemia cells” throughout. Further, the Ntrk1 level entry in the data set with Ntrk1/Hsp90 [3] (consequence of disrupted Ntrk1/Hsp90 binding) is “degradation and depletion of Ntrk1”.

For `CC(C)Oc1cc(Nc2nc(N[C@@H](C)c3ccc(F)cn3)ncc2Cl)n[nH]1` [AZ-23, 5-chloro-N-[(1S)-1-(5-fluoropyridin-2-yl)ethyl]-N′-(5-propan-2-yloxy-1H-pyrazol-3-yl)pyrimidine-2,4-diamine], the tumor growth result with neuroblastoma xenograft is “inhibit tumor growth”.

For `CO[C@]1(COC(=O)CCNC(=O)[C@@H](N)CCCCN)C[C@H]2O[C@]1(C)n1c3ccccc3c3c4c(c5c6ccccc6n2c5c31)C(=O)NC4` [CEP-2563], the anti-tumor activity result in the data set on preclinical models is listed as “anti-tumor activity”.

Take `COC(=O)[C@@]1(O)C[C@H]2O[C@]1(C)n1c3ccccc3c3c4c(c5c6ccccc6n2c5c31)C(=O)NC4` [K252a, (9S-(9a, 108,12a))-2,3,9,10,11,12-hexahydro-10-hydroxy-10-(methoxycarbonyl)-9-methyl-9,12-epoxy-1H-diindolo [1,2,3-fg: 3′,2′,1′-kl] pyrrolo [3,4-i][1,6] benzodiazocin-1-one]: in [5], the “activation of the anti-apoptotic protein Akt” value was “block activation”, the cell death entry is given as “promote cell death” and the tumor cell growth result is listed as “reduce tumor cell growth”.

Turning to `Nc1ncc(-c2cnn(C3CCNCC3)c2)cc1-c1nc2ccccc2o1` [KRC-108], the “inhibition of Ntrk1 / NTRK1” value at TrkA is recorded as “inhibit NTRK1”. In addition, the antiproliferative activity result in [6] was “antiproliferative activity”.

With `C[C@@H]1CCc2ncc(F)cc2[C@H]2CCCN2c2ccn3ncc(c3n2)C(=O)N1` [LOXO-195], the “confirmed complete or partial response” value in data set [7] (10 of 29 evaluable patients, RECIST 1.1, NTRK fusions resistant to other TRK-targeted therapeutics) is on record as 34%. The safety and tolerability entry in data set [7] (solid tumor cancer patients with NTRK fusions resistant to other TRK-targeted therapeutics) is recorded as “safe, tolerable”.

In the case of `O=C(Nc1cnn2ccc(N3CCC[C@@H]3c3cc(F)ccc3F)nc12)N1CC[C@H](O)C1` [Larotrectinib, larotrectinib], in the data set with NTRK gene fusions, the “median duration of response” value is 35.2 (22.7—not evaluable [NE]) months and the overall response rate is recorded as 79%. The “overall response rate (ORR)” value with NTRK fusion cancers (NTRK fusion cancers, current clinical trials) is listed as 75%. In addition, the “responses ongoing, share of patients” value in the data set on NTRK fusion cancers (at 12 months of treatment) is 75-81%. Besides, the “CR observed, share of patients” value in the data set on NTRK fusion cancers (combined Phase 1, Phase 1/2 and Phase 2 data) was 17%. Moreover, the ORR in the data set on NTRK fusion cancers (combined Phase 1, Phase 1/2 and Phase 2 data, adult and pediatric patients, various solid tumors harboring NTRK fusions (88/109)) is on record as 81%. The intracranial efficacy result with NTRK fusion cancers (individuals with NTRK fusion-positive gliomas or brain metastases) is given as “demonstrated”.

As to `CNC(=O)c1nn(C)c2c1C(C)(C)Cc1cnc(Nc3ccc(N4CCN(C)CC4)cc3)nc1-2` [PHA-848125], the anti-tumor effect result in the data set with tumor xenograft models is “anti-tumor effect”. Besides, the tumor growth entry in data set [8] is “inhibit tumor growth”. Besides, in the data set on solid tumors [9], the partial response was 2/14 and the stable disease is recorded as 9/28.

In the case of `Cc1cc2nc3c(=O)[nH]c(=O)nc-3n(C)c2cc1C=O` [Ro 08-2750], the pKd at NGF dimer was approximately 6.00.

For the molecule `C[C@@H](Oc1cc(-c2cnn(C3CCNCC3)c2)cnc1N)c1c(Cl)ccc(F)c1Cl` [crizotinib], the clinical responses result in data set [10] is given as “Durable clinical responses”.

Regarding `CO[C@@H](C(=O)N1Cc2n[nH]c(NC(=O)c3ccc(N4CCN(C)CC4)cc3)c2C1)c1ccccc1` [danusertib], on TrkA, the “inhibition of Ntrk1 / NTRK1” value is “inhibit Ntrk1”. Besides, in the data set on solid tumors [11], the objective response result is “objective response in one non-small cell lung cancer patient” and the tumor regression result is recorded as “tumor regression in an ovarian cancer patient”.

For the molecule `CN1CCN(c2ccc(C(=O)Nc3n[nH]c4ccc(Cc5cc(F)cc(F)c5)cc34)c(NC3CCOCC3)c2)CC1` [entrectinib, N-[5-(3,5-Difluorobenzyl)-1H-indazol-3-yl]-4-(4-methyl-1-piperazinyl)-2-(tetrahydro-2H-pyran-4-ylamino)benzamide], the clinical benefit result in [12] is given as “Clinical benefit”. Further, the “sensitivity of cell lines” value in data set [13] is “preclinical sensitivity”.

In the case of `NC(=O)Nc1snc(S[C@@H]2CCCCc3ccccc32)c1C(N)=O` [isothiazole 5n], the pIC50 at TrkA was more than 9.00.

As to `C[C@]12O[C@H](C[C@]1(O)CO)n1c3ccccc3c3c4c(c5c6ccccc6n2c5c31)CNC4=O` [lestaurtinib, (5S,6S,8R)-6-hydroxy-6-(hydroxymethyl)-5-methyl-7,8,14,15-tetrahydro-5H-16-oxa-4b,8a,14-triaza-5,8-methanodibenzo[b,h]cycloocta[jkl]cyclopenta[e]-as-indacen-13(6H)-one], the tumor growth result in the data set with neuroblastoma xenograft is “inhibit tumor growth”. For the same molecule, in the data set with neuroblastoma, the “efficacy in clinical trials” value is given as “effective”.
